This note sets out measurements from paper PMC5081701, “Identification of New Structural Fragments for the Design of Lactate Dehydrogenase A Inhibitors” (Acta Naturae, 2016).

One may read the IC50 as the concentration at which inhibition is half-maximal. Lower therefore signals greater potency.

For the assay, the target named is T1, LDH from rabbit muscle (LDH-A) (Oryctolagus cuniculus, UniProt P13491).
T1 construct: gene LDHA; native commercial enzyme from rabbit muscle (Sigma-Aldrich), homotetramer
The assay is described as follows: spectrophotometric NADH absorbance decrease at […] nm, initial rate. Type of assay: biochemical.

For the compound `O=S(=O)(O)CCSc1nc2ccccc2s1` [compound 4, 2-(benzothiazol-2-ylsulfanyl)-ethanesulfonate], half-maximal inhibition (IC50) was put at 1200 µM.
